Test system: sipB::lacZY
Experiment: sipB::lacZY reporter β-galactosidase assay in strains expressing wild type or mutant HilD
Type: cell-based
Details: 20 μM fatty acid (mix: 20 μM of each)
Excerpt: To test the effect of mutations in hilD, we initially constructed a background Salmonella strain without chromosomal hilC, rtsA and hilD and fused sipB to lacZY to assess SPI-1 expression. hilD with a C-terminal 3XFLAG tag was cloned into pWSK29 under control of the tetRA promoter for tetracycline-inducible expression. This plasmid was subjected to site-directed mutagenesis at specific nucleotides to change selected amino acids to alanine, using the Agilent QuikChange II Site-Directed Mutagenesis kit following their protocol. Mutations were confirmed by DNA sequencing.
Salmonella strains were inoculated into LB buffered with 100 mM MOPS [3-(N-morpholino) propanesulphonic acid] pH 6.7, with necessary antibiotics, and fatty acids or control solvents to be tested. Cultures were incubated at 37° C without aeration overnight, and assays were performed using an established protocol.

[1] = strain expressing wild type HilD

With `CCCCCCCC/C=C\CCCCCCCC(=O)O` [oleic acid, cis-9-octadecenoic acid] the “repression of sipB expression” value (strain expressing HilD K43A) was “no longer had a repressive effect”, the “repression of sipB expression” value (strain expressing HilD K293A) was “continued to repress sipB expression” and the “repression of sipB expression” value (strain expressing HilD K294A) was “continued to repress sipB expression”. The “repression of sipB expression” value (strain expressing HilD Q290A) was “no longer had a repressive effect” and the “repression of sipB expression” value [1] was 3.7 fold.
`CCCCCCCCC/C=C\C(=O)O` [c2-DDA, cis-2-dodecenoic acid] was tested, and the “repression of sipB expression” value (strain expressing HilD K293A) was “no significant reduction”, the “repression of sipB expression” value (strain expressing HilD K294A) was “no significant reduction” and the “repression of sipB expression” value [1] was 4.1 fold.
For `CCCCCCCCCCC/C=C\CCCCCCC(=O)O` [c8-EA, cis-8-eicosenoic acid], the “repression of sipB expression” value (strain expressing HilD K293A) was “continued to repress sipB expression” and the “repression of sipB expression” value (strain expressing HilD K294A) was “continued to repress sipB expression”.

From PMC7932555, “A diffusible signal factor of the intestine dictates Salmonella invasion through its direct control of the virulence activator HilD” (PLoS Pathogens, 2021)
